Converted amounts (≈) assume the structure as drawn. Read-outs that look alike come from different tables or passages of the source.
Tests used:
[1] = tested on: Colony LP19; experiment: Antibiotic susceptibility test; type: cell-based, Lactiplantibacillus Plantarum; details: for MIC: Lactiplantibacillus plantarum, LP19, 24 h; for Minimum inhibitory concentration of the antibiotic to LP19: 96-well, 37 C 24 h, OD600
Text: (§1) To test bacterial susceptibility to antibiotics, such as Aminoglycosides antibiotics, Sulfonamide antibiotics, Quinolone antibiotics, Ampicillin, Cefotaxime, Chloramphenicol, Erythromycin, Rifampicin and Tetracycline, the experimental protocol were as follow. Further, the Quinolone antibiotics comprise Ciprofloxacin, the Aminoglycosides antibiotics comprise Kanamycin and […], and the Sulfonamide antibiotics comprise Sulfamethoxazole. […] The initial absorbance at 600 nm (OD600) of each well was recorded. Then, the 96-well plates were placed at 37° C. and cultured for 24 hours. Next, the OD600 of each well was measured again to determine minimum inhibitory concentration.

[2] = tested on: Colony LP1; experiment: Antibiotic susceptibility test; type: cell-based, Lactiplantibacillus Plantarum; details: for MIC: Lactiplantibacillus plantarum, LP1, 24 h; for Minimum inhibitory concentration of the antibiotic to LP1: 96-well, 37 C 24 h, OD600
Text: as §1

[3] = tested on: Colony LP2; experiment: Antibiotic susceptibility test; type: cell-based, Lactiplantibacillus Plantarum; details: for MIC: Lactiplantibacillus plantarum, LP2, 24 h, read-out: Minimum inhibitory concentration of the antibiotic to LP2
Text: as §1

[4] = tested on: Colony LP5; experiment: Antibiotic susceptibility test; type: cell-based, Lactiplantibacillus Plantarum; details: for MIC: Lactiplantibacillus plantarum, LP5, 24 h; for Minimum inhibitory concentration of the antibiotic to LP5: 96-well, 37 C 24 h, OD600
Text: as §1

[5] = tested on: Colony PTA22; experiment: Antibiotic susceptibility test; type: cell-based, Lactiplantibacillus Plantarum; details: for MIC: Lactiplantibacillus plantarum, PTA22, 24 h; for Minimum inhibitory concentration of the antibiotic to PTA22: 96-well, 37 C 24 h, OD600
Text: as §1

[6] = tested on: L. pl 24-2L; details: from Georgieva et al., 2015; cited from earlier work
[7] = tested on: L. pl 24-5D; details: from Georgieva et al., 2015; cited from earlier work
[8] = tested on: L. plantarum 299; details: from Klarin et al., 2019; cited from earlier work
[9] = tested on: L. plantarum 299v; details: from Klarin et al., 2019; cited from earlier work
[10] = tested on: species L. plantarum; details: EFSA (2005); cited from earlier work
[11] = read-out: Minimum inhibitory concentration of the antibiotic to LP19, 96-well, 37 C 24 h, OD600
[12] = read-out: Minimum inhibitory concentration of the antibiotic to LP1, 96-well, 37 C 24 h, OD600
[13] = read-out: Minimum inhibitory concentration of the antibiotic to LP5, 96-well, 37 C 24 h, OD600
[14] = read-out: Minimum inhibitory concentration of the antibiotic to PTA22, 96-well, 37 C 24 h, OD600

| SMILES | MIC [1, 11] [µg/mL] | MIC [2, 12] [µg/mL] | MIC ([3]; 96-well, 37 C 24 h, OD600) [µg/mL] | MIC [4, 13] [µg/mL] | MIC [5, 14] [µg/mL] | Minimum inhibitory concentration of the antibiotic to L. pl 24-2L [6] [µg/mL] | Minimum inhibitory concentration of the antibiotic to L. pl 24-5D [7] [µg/mL] | Minimum inhibitory concentration of the antibiotic to L. plantarum 299 [8] [µg/mL] | Minimum inhibitory concentration of the antibiotic to L. plantarum 299v [9] [µg/mL] | EFSA, MIC breakpoints species L. plantarum [10] [µg/mL] | Minimum inhibitory concentration of the antibiotic to LP19 [1] [µg/mL] | Minimum inhibitory concentration of the antibiotic to LP1 [2] [µg/mL] | Minimum inhibitory concentration of the antibiotic to LP2 ([3]; 96-well, 37 C 24 h, OD600) [µg/mL] | Minimum inhibitory concentration of the antibiotic to LP5 [4] [µg/mL] | Minimum inhibitory concentration of the antibiotic to PTA22 [5] [µg/mL] | MIC ([1]; read-out: Minimum inhibitory concentration of the antibiotic to LP19) [µg/mL] | MIC ([2]; read-out: Minimum inhibitory concentration of the antibiotic to LP1) [µg/mL] | MIC [3] [µg/mL] | MIC ([4]; read-out: Minimum inhibitory concentration of the antibiotic to LP5) [µg/mL] | MIC ([5]; read-out: Minimum inhibitory concentration of the antibiotic to PTA22) [µg/mL] |
| --- | --- | --- | --- | --- | --- | --- | --- | --- | --- | --- | --- | --- | --- | --- | --- | --- | --- | --- | --- | --- |
| CC[C@H]1OC(=O)[C@H](C)[C@@H](O[C@H]2C[C@@](C)(OC)[C@@H](O)[C@H](C)O2)[C@H](C)[C@@H](O[C@@H]2O[C@H](C)C[C@H](N(C)C)[C@H]2O)[C@](C)(O)C[C@@H](C)C(=O)[C@H](C)[C@@H](O)[C@]1(C)O [Erythromycin] | 2 (≈ 2.73 µM) | 1 (≈ 1.36 µM) | 2 (≈ 2.73 µM) | 2 (≈ 2.73 µM) | 4 (≈ 5.45 µM) | 0.75 | 0.75 | 0.75 | 1 | 4 |  |  |  |  |  |  |  |  |  |  |
| CO[C@H]1/C=C/O[C@@]2(C)Oc3c(C)c(O)c4c(O)c(c(/C=N/N5CCN(C)CC5)c(O)c4c3C2=O)NC(=O)/C(C)=C\C=C\[C@H](C)[C@H](O)[C@@H](C)[C@@H](O)[C@@H](C)[C@H](OC(C)=O)[C@@H]1C [Rifampicin] | 2 (≈ 2.43 µM) | 1 (≈ 1.22 µM) | 1 (≈ 1.22 µM) | 1 (≈ 1.22 µM) | 2 (≈ 2.43 µM) |  |  |  |  |  |  |  |  |  |  |  |  |  |  |  |
| Cc1cc(NS(=O)(=O)c2ccc(N)cc2)no1 [Sulfamethoxazole] | > 256 | > 256 | > 256 | > 256 | > 256 |  |  |  |  |  | >256 | >256 | >256 | >256 | >256 |  |  |  |  |  |
| CN(C)[C@@H]1C(O)=C(C(N)=O)C(=O)[C@@]2(O)C(O)=C3C(=O)c4c(O)cccc4[C@@](C)(O)[C@H]3C[C@@H]12 [Tetracycline] | 32 (≈ 72 µM) | 32 (≈ 72 µM) | 32 (≈ 72 µM) | 32 (≈ 72 µM) | 64 (≈ 144 µM) |  |  |  |  |  |  |  |  |  |  |  |  |  |  |  |
| CN[C@H](CC(C)C)C(=O)N[C@H]1C(=O)N[C@@H](CC(N)=O)C(=O)N[C@H]2C(=O)N[C@H]3C(=O)N[C@H](C(=O)N[C@H](C(=O)O)c4cc(O)cc(O)c4-c4cc3ccc4O)[C@H](O)c3ccc(c(Cl)c3)Oc3cc2cc(c3O[C@@H]2O[C@H](CO)[C@@H](O)[C@H](O)[C@H]2O[C@H]2C[C@](C)(N)[C@H](O)[C@H](C)O2)Oc2ccc(cc2Cl)[C@H]1O [Vancomycin] |  |  |  |  |  | >256 | >256 | >256 | >256 |  | >256 | >256 | >256 | >256 | >256 | > 256 | > 256 | > 256 | > 256 | > 256 |
